According to patent publication US20220296573A1, “NOVEL COMPOUNDS AND PHARMACEUTICAL COMPOSITIONS THEREOF FOR THE TREATMENT OF INFLAMMATORY DISORDERS” (Galapagos NV, priority 2019, published 2022):

Experiments:
Mouse Hepatocyte = assay: Metabolic stability in mouse hepatocytes; assay type: in vitro ADME; conditions: mouse cryopreserved hepatocytes, 1 μM
Experimental: (§1) The aim of this assay is to determine the metabolic stability of the compound in hepatocytes (cryopreserved) of different species. Low hepatocyte stability may result in the formation of unwanted metabolites, high clearance, and therefore is not desirable.
(§2) A 10 mM stock solution of test compound in DMSO was first diluted in DMSO to 3 mM, and then in modified Krebs-Henseleit buffer (Sigma, K3753) to 5 μM. This compound dilution was added to a suspension of pooled cryopreserved hepatocytes (BioreclamationIVT) at 37° C. under gentle shaking.
(§3) Final reaction conditions were: 1 μM of test compound, 0.03% DMSO, 0.5 million viable hepatocytes/mL, and 75 μL incubation volume.
(§4) Testosterone (1 μM) and 7-hydroxycoumarin (1 μM) were used, respectively as phase I and phase II metabolic reaction controls.
(§5) After 0, 10, 20, 45, 90, 120 and 180 min of incubation, the reaction was terminated with 225 μL of MeCN:MeOH (2:1) containing 100 ng/mL of diclofenac as analytical internal standard. Samples were mixed, centrifuged and the supernatant analyzed by LC-MS/MS.
(§6) The instrument responses (ratios of test compound and internal standard peak areas) were referenced to the zero time point samples (considered as 100%) in order to determine the percentage of compound remaining.
(§7) Plots of percentage compound remaining were used to determine the intrinsic clearance in the hepatocyte incubations using the following equations:
(§8) Scaled Clint [L/h/kg]=Clint [μL/min/10^6 cells]*#(10) cells/g liver*60*(1/10^6) Scaled Clint unbound [L/h/kg]=Clint [L/h/kg]/Fu,inc where: fu,inc equals hepatocyte binding, derived from microsomal binding (fu,mic) by following equation: […]

human IRAK-4 = molecular target: T1, human IRAK-4 (Homo sapiens, UniProt Q9NWZ3); assay: Phosphorylation IC50 determination for human IRAK-4 (ADP-Glo Kinase Assay); conditions: human IRAK-4, substrate RIP140, Km ATP; read-out: IRAK4 ADPglo biochemical assay IC50
T1 construct: purchased Carna Biosciences 09 145
T1 sequence (Q9NWZ3 1-460): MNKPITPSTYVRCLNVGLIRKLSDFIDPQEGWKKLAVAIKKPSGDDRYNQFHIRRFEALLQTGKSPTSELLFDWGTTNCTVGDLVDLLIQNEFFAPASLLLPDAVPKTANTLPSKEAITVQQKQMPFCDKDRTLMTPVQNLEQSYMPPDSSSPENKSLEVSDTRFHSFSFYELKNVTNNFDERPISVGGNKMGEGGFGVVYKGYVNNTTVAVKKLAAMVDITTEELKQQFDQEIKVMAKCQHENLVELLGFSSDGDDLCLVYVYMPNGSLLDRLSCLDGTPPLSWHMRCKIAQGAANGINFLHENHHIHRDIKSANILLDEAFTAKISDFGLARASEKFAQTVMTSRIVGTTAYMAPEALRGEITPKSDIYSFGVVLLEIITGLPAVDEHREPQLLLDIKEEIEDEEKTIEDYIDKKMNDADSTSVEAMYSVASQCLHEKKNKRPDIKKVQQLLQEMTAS
Experimental: The phosphorylation of the substrate RIP140 (SEQ ID1) by IRAK4 at Km ATP was detected with the ADP-Glo Kinase Assay (Promega, Cat #V9103), a luminescent kinase assay which measures the ADP formed from a kinase reaction. (Zegzouti et al. 2009) In a second step the kinase reaction was terminated and all the remaining ATP was depleted. In a final step the ADP was converted into ATP and this newly synthesized ATP was measured by using a luciferase/luciferin reaction with a luminescent reader. The luminescent signal positively correlated with kinase activity, in particular kinase inhibition giving a decrease of the luminescent signal.
For the semi-automated assay, the positive control (100% inhibition) was prepared by diluting 10 mM staurosporine stock mixture (20 μL) in water (3.8 mL) and DMSO (180 μL), thus resulting in a […] staurosporine solution at 1% DMSO (final concentration after further dilution in the kinase reaction).
For the automated assay, no pre-dilution of the 10 mM staurosporine stock was made. 10 mM staurosporine was spotted directly in the assay plate using acoustic dispensing and complemented with DMSO to result in a similar final concentration as mentioned above.
For the semi-automated assay, the negative control (0% inhibition) was prepared by mixing water (3.8 mL) and DMSO (200 μL) resulting in a final concentration of 1% DMSO after further dilution in the kinase reaction. For the automated assay no pre-dilution of DMSO was done. 100% DMSO was spotted directly on the assay plate.
The assay buffer solution was prepared at a concentration corresponding to 5 fold the final (most diluted) assay concentration by mixing a solution of 125 mM TRIS pH 7.5+0.05% Triton X-100+2.5 mM EGTA (5.27 mL) with 1M mgCl2 (72 μL), 1M DTT (57.6 μL), and 200 mM MnCl2 (360 μL).
For example, for the semi-automated method, the enzyme-substrate mixture was prepared by mixing water (3999 μL), assay buffer solution (1380 μL), 1 mM RIP140 (138 μL—SEQ ID1), and 200 ng/mL IRAK 4 (3.45 μL Carna Biosciences, 09 145).
For semi-automated method, the ATP mixture was prepared at a concentration corresponding to 2.5 fold the final (most diluted) assay concentration of the semi-automated method and 1.5 fold the final (most diluted) assay concentration of the automated method. For example, for the semi-automated method, the ATP mixture was prepared by mixing water (4126 μL), assay buffer solution (1380 μL), and 10 mM ATP (13.80 μL).
The assay are performed either in a semi-automated or fully automated manner. The assay volume and the incubation time of the ADP detection were different accordingly the method used.
The compounds were prepared as a serial dilution of 10 point dose responses with 1/5 dilution steps in 100% DMSO starting from 2 mM highest concentration, diluted 1/20 in water. 1 μL was transferred dry to the assay plates.
On each assay plate 32 wells of each control (positive & negative) were added, followed by 2 μL enzyme-substrate mixture.
The reaction was started by adding 2 μL diluted ATP (final concentration Km ATP) on the assay plates. Plates were centrifuged for a few seconds at 1000 rpm followed by an incubation at r.t. for 120 min.
The reactions were stopped and the unconsumed ATP was depleted by adding 5 μL ADP-glo Reagent (Promega, Cat #V9103) to the reaction. The plates were quickly centrifuged at 1000 rpm and incubated at r.t. for 40 min corresponding to full ATP depletion.
The ADP was converted back to ATP and luciferase and luciferin were introduced to detect ATP by adding 10 μL kinase detection reagent (Promega, Cat #V9103) to the reaction. The plates were centrifuged for a few seconds at 1000 rpm and incubated at r.t. for a further 30 min.
Luminescent read out was performed on an Envision luminescent reader (Perkin Elmer).
For the automated assay, the compounds were prepared as a serial dilution of 10 point dose responses with 1/5 dilution steps in 100% DMSO starting from 2 mM highest concentration. […]

Human Hepatocyte = assay: Metabolic stability in human hepatocytes; assay type: in vitro ADME; conditions: human cryopreserved hepatocytes, 1 μM
Experimental: as §1, §2, §3, §4, §5, §6, §7, §8

CNC(=O)c1cc2nc(C3COCCO3)cn2cc1NC(=O)c1cccc(C(C)(F)F)n1 (stereo not drawn) [Compound 14, 6-(6-(1,1-difluoroethyl)picolinamido)-2-(1,4-dioxan-2-yl)-N-methylimidazo[1,2-a]pyridine-7-carboxamide]
Mouse Hepatocyte stability (Perc. remaining at 90 min) (Mouse Hepatocyte): 67.65 Perc.
IC50 (human IRAK-4): 0.1 to 5 nM
Human Hepatocyte stability (Perc. remaining at 90 min) (Human Hepatocyte): 100.05 Perc.

O=C(Nc1cn2cc(C3CCOCC3)nc2c(F)c1OCC(F)F)c1cccn(C2CC2)c1=O [Compound 19, 1-cyclopropyl-N-(7-(2,2-difluoroethoxy)-8-fluoro-2-(tetrahydro-2H-pyran-4-yl)imidazo[1,2-a]pyridin-6-yl)-2-oxo-1,2-dihydropyridine-3-carboxamide]
Mouse Hepatocyte stability (Perc. remaining at 90 min) (Mouse Hepatocyte): 76.5 Perc.
IC50 (human IRAK-4): 10 to 50 nM
Human Hepatocyte stability (Perc. remaining at 90 min) (Human Hepatocyte): 56.6 Perc.
